Data taken from patent US8389268B2, “Method and culture medium for enhanced detection of mycobacterium” (priority 2009, dated 2013).
Values joined by “and” are separate entries in the source; they are usually repeats but may differ in a detail not shown here. Equal values may be shown once. Read-outs that look alike come from different tables or passages of the source.

Key:
M. avium 25291 = test: Time to detection (TTD) of growth in BacT/ALERT MP culture bottles; format: cell-based, Mycobacterium avium; settings: for # Positive: of 4.0 tested
M. scrofulaceum 19981 = test: as above; format: cell-based, Mycobacterium scrofulaceum
M. fortuitum 6841 = test: as above; settings: for # Positive / # Positives: of 4.0 tested
mycobacteria = format: cell-based, Mycobacterium species
M. intracellulare 13950 = test: Time to detection (TTD) of growth in BacT/ALERT MP culture bottles; format: cell-based, Mycobacterium intracellulare; settings: for # Positive: of 4.0 tested
MTB 27294 = test: as above; format: cell-based, Mycobacterium tuberculosis; settings: for # Positive: of 4.0 tested
M. kansasii 12478 = test: as above; format: cell-based, Mycobacterium kansasii; settings: for # Positive / # Positives: of 4.0 tested
MTB 25177 = test: as above; format: cell-based, Mycobacterium tuberculosis; settings: for # Positive: of 4.0 tested
Description: For Growth Performance, […] organisms (M. tuberculosis, M. avium, and M. intracellulare) were tested. The conventional MAS formulation was used for these experiments. The new supplement with/without FA supplementation and conventional/old RF were used to rehydrate a lyophilized powder of the conventional or old MB BacT antibiotic supplement (conventional/old MAS) (bioMérieux, Inc.).
For the new supplement, the new, autoclavable BacT/ALERT® MP bottle (as described hereinabove) was used and for conventional/old RF, the conventional/old MP bottle was used. Before the inoculation of new and conventional/old MP culture bottles (bioMérieux, Inc.) with mycobacteria cultures, 0.5 ml of new supplement with/without FA or 0.5 ml of conventional/old RF were added to one set of the BacT/ALERT® MP culture bottles. The rehydrated conventional MAS (using new supplement with/without FA and conventional/old RF) was added to the second set of MP culture bottles. The growth (as TTD of growth) was compared in these bottles for Mycobacterium avium, Mycobacterium intracellulare and Mycobacterium tuberculosis cultures after inoculating with approximately 0.5×10^3 CFU/ml.
For the new MAS formulas and NS, a new, autoclaved BacT/ALERT® MP bottle (as described hereinabove) was used and for conventional/old RF, conventional/old MP bottle (bioMérieux, Inc.) was used. […] The conventional MAS (using conventional/old RF) and new MAS formulas (using NS) were added to the second set of MP culture bottles.
The mycobacteria inoculum was 0.5×10^3 CFU/ml.

[1] = test system: contaminating respiratory flora (CRF); test: Suppression of contaminating respiratory flora (CRF), growth or no growth in BacT/ALERT MP culture bottles; format: cell-based, gram positive or gram negative bacterial and yeast cultures; settings: screen of various drugs

SMILES: CC1(C)S[C@@H]2[C@H](NC(=O)[C@H](NC(=O)N3CCNC3=O)c3ccccc3)C(=O)N2[C@H]1C(=O)O [AZL, azlocillin]
- Average TTD (M. avium 25291; Table 4, Media + AZL 12): 20.1 days
- # Positive (M. avium 25291; Table 4, Media + AZL 12): 4.0
- Average TTD (M. avium 25291; Table 4, Media + AZL 24): 22.2 days
- # Positive (M. avium 25291; Table 4, Media + AZL 24): 4.0
- Average TTD (M. avium 25291; Table 4, Media + AZL 48): 21.2 days
- # Positive (M. avium 25291; Table 4, Media + AZL 48): 4.0
- Average TTD (M. scrofulaceum 19981; Table 4, Media + AZL 12): 24.2 days
- # Positive (M. scrofulaceum 19981; Table 4, Media + AZL 12, of 4.0 tested): 2.0
- Average TTD (M. scrofulaceum 19981; Table 4, Media + AZL 48): 21.7 days
- # Positive (M. scrofulaceum 19981; Table 4, Media + AZL 48, of 3.0 tested): 1.0
- Average TTD (M. fortuitum 6841; Table 4, Media + AZL 12): 4.0 days
- # Positive (M. fortuitum 6841; Table 4, Media + AZL 12): 4.0
- Average TTD (M. fortuitum 6841; Table 4, Media + AZL 24): 4.2 days
- # Positive (M. fortuitum 6841; Table 4, Media + AZL 24): 4.0
- Average TTD (M. fortuitum 6841; Table 4, Media + AZL 48): 4.1 days
- # Positive (M. fortuitum 6841; Table 4, Media + AZL 48): 4.0
- effect on growth (as determined by TTD of growth) (mycobacteria): negative effect on the growth
- Average TTD (M. intracellulare 13950; Table 4, Media + AZL 12): 16.4 days
- # Positive (M. intracellulare 13950; Table 4, Media + AZL 12): 4.0
- Average TTD (M. intracellulare 13950; Table 4, Media + AZL 24): 19.8 days
- # Positive (M. intracellulare 13950; Table 4, Media + AZL 24): 4.0
- Average TTD (M. intracellulare 13950; Table 4, Media + AZL 48): 20.0 days
- # Positive (M. intracellulare 13950; Table 4, Media + AZL 48): 2.0
- Average TTD (MTB 27294; Table 4, Media + AZL 12): 15.4 days
- # Positive (MTB 27294; Table 4, Media + AZL 12): 4.0
- Average TTD (MTB 27294; Table 4, Media + AZL 24): 16.0 days
- # Positive (MTB 27294; Table 4, Media + AZL 24): 4.0
- Average TTD (MTB 27294; Table 4, Media + AZL 48): 15.4 days
- # Positive (MTB 27294; Table 4, Media + AZL 48): 4.0
- Average TTD (M. kansasii 12478; Table 4, Media + AZL 12): 18.5 days
- # Positive (M. kansasii 12478; Table 4, Media + AZL 12): 3.0
- Average TTD (M. kansasii 12478; Table 4, Media + AZL 24): 18.9 days
- # Positive (M. kansasii 12478; Table 4, Media + AZL 24): 4.0
- Average TTD (M. kansasii 12478; Table 4, Media + AZL 48): 20.5 days
- # Positive (M. kansasii 12478; Table 4, Media + AZL 48): 1.0
- Average TTD (MTB 25177; Table 4, Media + AZL 12): 22.4 days
- # Positive (MTB 25177; Table 4, Media + AZL 12): 4.0
- Average TTD (MTB 25177; Table 4, Media + AZL 24): 23.8 days
- # Positive (MTB 25177; Table 4, Media + AZL 24): 2.0
- Average TTD (MTB 25177; Table 4, Media + AZL 48): 24.8 days
- # Positive (MTB 25177; Table 4, Media + AZL 48): 2.0

SMILES: N=C(N)NCCC[C@H](N)C(=O)O [L-arginine]
- reduction in TTD (mycobacteria): did not show a reduction in TTD

SMILES: O=C(O)C[C@H](O)C(=O)O [L-malate]
- reduction in TTD (mycobacteria): did not show a reduction in TTD

SMILES: CN[C@H](CC(C)C)C(=O)N[C@H]1C(=O)N[C@@H](CC(N)=O)C(=O)N[C@H]2C(=O)N[C@H]3C(=O)N[C@H](C(=O)N[C@H](C(=O)O)c4cc(O)cc(O)c4-c4cc3ccc4O)[C@H](O)c3ccc(c(Cl)c3)Oc3cc2cc(c3O[C@@H]2O[C@H](CO)[C@@H](O)[C@H](O)[C@H]2O[C@H]2C[C@](C)(N)[C@H](O)[C@H](C)O2)Oc2ccc(cc2Cl)[C@H]1O [VAN, vancomycin]
- # Positives (M. avium 25291): 4.0 and 3.0
- Average TTD (M. avium 25291): 20.6 days and 21.2 days
- Average TTD (M. scrofulaceum 19981; Table 5, Media + VAN 1.75): 14.2 days
- # Positives (M. scrofulaceum 19981; Table 5, Media + VAN 1.75, of 4.0 tested): 4.0
- Average TTD (M. scrofulaceum 19981; Table 5, Media + VAN 3.5): 14.0 days
- # Positives (M. scrofulaceum 19981; Table 5, Media + VAN 3.5, of 4.0 tested): 4.0
- Average TTD (M. scrofulaceum 19981; Table 5, Media + VAN 7): 15.3 days
- # Positives (M. scrofulaceum 19981; Table 5, Media + VAN 7, of 1.0 tested): 1.0
- Average TTD (M. fortuitum 6841; Table 5, Media + VAN 1.75): 4.7 days
- # Positives (M. fortuitum 6841; Table 5, Media + VAN 1.75): 4.0
- Average TTD (M. fortuitum 6841; Table 5, Media + VAN 3.5): 4.1 days
- # Positives (M. fortuitum 6841; Table 5, Media + VAN 3.5): 4.0
- Average TTD (M. fortuitum 6841; Table 5, Media + VAN 7): 4.8 days
- # Positives (M. fortuitum 6841; Table 5, Media + VAN 7): 4.0
- effect on growth (as determined by TTD of growth) (mycobacteria): negative effect on the growth
- # Positives (M. intracellulare 13950): 4.0
- Average TTD (M. intracellulare 13950): 9.4 days and 9.7 days and 10.3 days
- # Positives (MTB 27294): 4.0
- Average TTD (MTB 27294): 16.3 days and 16.0 days and 18.3 days
- # Positives (M. kansasii 12478; Table 5, Media + VAN 1.75): 4.0
- Average TTD (M. kansasii 12478; Table 5, Media + VAN 3.5): 21.5 days
- # Positives (M. kansasii 12478; Table 5, Media + VAN 3.5): 2.0
- # Positives (MTB 25177): 2.0
- Average TTD (MTB 25177): 23.7 days

SMILES: C[C@@H]1O[C@@H]1P(=O)(O)O [fosfomycin]
- ability to suppress contaminating respiratory flora (CRF) [1]: best choice for suppression of CRF

SMILES: CC(O)C(=O)O (centres unmarked) [lactate]
- reduction in TTD (mycobacteria): did not show a reduction in TTD

SMILES: O=C(O)CC(=O)C(=O)O [oxaloacetic acid]
- reduction in TTD (mycobacteria): did not show a reduction in TTD

SMILES: O=C(O)CCC(=O)C(=O)O [α-keto glutarate, α-ketoglutarate]
- Avg. TTD (M. avium 25291): 13.5 days and 13.8 days
- No. of positives (M. avium 25291): 3
- reduction in time to detection (TTD) of growth (mycobacteria): approximate two days reduction
- Avg. TTD (M. intracellulare 13950): 9.0 days and 8.8 days
- No. of positives (M. intracellulare 13950): 3
- Avg. TTD (MTB 27294): 14.3 days and 13.9 days
- No. of positives (MTB 27294): 3
